Laboratory results published in patent US20160279079A1, “COMPOSITIONS AND METHODS FOR TREATING BONE DISEASES” (INDIANA UNIVERSITY RESEARCH AND TECHNOLOGY CORPORATION, priority 2013, published 2016).
Entries after “also recorded” stand apart in the source; their conditions may differ.

What was measured:
Assay type in all cases: cell-based, mouse
RAW264.7 cells = assay: Osteoclastogenesis in vitro and TRAP staining; settings: for growth area covered by multi-nucleated cells: dose dependent; for number of TRAP-positive multi-nucleated cells: with 20 ng/ml RANKL, 5 days of culture
Protocol: METHOD EXAMPLE. Inhibition of osteoclastogenesis of RAW264.7 cells by salubrinal. The primary aim of this study is to evaluate the effects of salubrinal on osteoclastogenesis. In response to 0.1-20 μM salubrinal for 24 h, cell mortality and live cell numbers of RAW264.7 pre-osteoclasts was examined. […] The number of live cells was increased by ˜50% by incubation with RANKL, and administration of 10-20 μM salubrinal reduced the numbers approximately by 10% (FIG. 3B).
METHOD EXAMPLE. Inhibitory effects of guanabenz on osteoclastogenesis of RAW264.7 cells. To further examine a potential involvement of p-eIF2α in regulation of osteoclastogenesis, we employed guanabenz that also acts as an inhibitor of de-phosphorylation of eIF2α was evaluated. […] Compared to the number of TRAP-positive multi-nucleated cells of 377 39 (RANKL only), guanabenz reduced the number of differentiated osteoclasts to 364±38 (1 μM), 288±51 (5 μM), 189±25 (10 μM), and 73±16 (20 μM).
METHOD EXAMPLE. Osteoclastogenesis in vitro and TRAP (Tartrate-resistant acid phosphatase) staining. RAW264.7 cells were plated at a density of 5×10^3/cm^2 into a 12-well or a 60 mm dish, and cultured with 20 ng/ml RANKL in the presence and absence of salubrinal or guanabenz. The culture medium was replaced every 2 days. After 5 days of culture, the cells were stained for TRAP staining using an acid phosphatase leukocyte kit (Sigma). The number of TRAP-positive cells containing three or more nuclei was determined

NFATc1 = assay: Quantitative real-time PCR, NFATc1 mRNA in RAW264.7 cells
Protocol: (§1) METHOD EXAMPLE. Quantitative real-time PCR. Total RNA was extracted using an RNeasy Plus mini kit (Qiagen, Germantown, Md., USA). Reverse transcription was conducted with high capacity cDNA reverse transcription kits (Applied Biosystems, Carlsbad, Calif., USA), and quantitative real-time PCR was performed using ABI 7500 with Power SYBR green PCR master mix kits (Applied Biosystems). We evaluated mRNA levels of ATF4, Osteocalcin (OCN), NFATcl, c-Fos, tartrate-resistant acid phosphatase (TRAP), and osteoclast-associated receptor (OSCAR) with the PCR primers listed in Table 1. GAPDH was used for internal control. The relative mRNA abundance for the selected genes with respect to the level of GAPDH mRNA was expressed as a ratio of Streated/Scontrol, where Streated=mRNA level for the cells treated with chemical agents, and Scontrol=mRNA level for control cells.
(§2) METHOD EXAMPLE. Partial suppression of mRNA levels of NFATcl, c-Fos, TRAP, and OSCAR by salubrinal. […] On day 2, for instance, the RANKL-driven increase was 9.4±0.5 fold (NFATcl), 1.9±0.1 fold (c-fos), 165±4.2 fold (TRAP), and 467±22 fold (OSCAR). The reduction by 20 μM salubrinal was 46% (NFATcl), 32% (c-fos), 35% (TRAP), and 21% (OSCAR) (FIG. 5A).
(§3) METHOD EXAMPLE. Reduction of RANKL-induced NFATcl, c-Fos, TRAP, and OSCAR by guanabenz. […] The normalized level of “1” was defined as the level for the cells that were not treated with RANKL without administration of guanabenz.

[1] = test system: tartrate-resistant acid phosphatase (TRAP); assay: Quantitative real-time PCR, TRAP mRNA in RAW264.7 cells; settings: for expression of TRAP: absence of RANKL administration
Protocol: as §1, §2, §3

p-ERK = assay: Western immunoblotting, p-ERK in RAW264.7 cells; settings: 20 μM salubrinal
Protocol: (§4) METHOD EXAMPLE. Western Immunoblotting. Cells were lysed in a radioimmunoprecipitation assay (RIPA) buffer containing protease inhibitors (Santa Cruz Biotechnology, Santa Cruz, Calif., USA) and phosphatase inhibitors (Calbiochem, Billerica, Mass., USA). Isolated proteins were fractionated using 10-15% SDS gels and electro-transferred to Immobilon-P membranes (Millipore, Billerica, Mass., USA). The membrane was incubated for 1 h with primary antibodies followed by 45 min incubation with goat anti-rabbit or anti-mouse IgG conjugated with horseradish peroxidase (Cell Signaling, Danvers, Mass., USA). We used antibodies against ATF4, NFATcl (Santa Cruz), p-eIF2α (Thermo Scientific, Waltham, Mass., USA), eIF2α, caspase 3, cleaved caspase 3, p38 and p-p38 mitogen activated protein kinase (MAPK), extracellular signal-regulated kinase (ERK) and p-ERK, nuclear factor kappa B (NFκB) p65 and p-NFκB p65 (Cell Signaling), and β-actin (Sigma). Protein levels were assayed using a SuperSignal west femto maximum sensitivity substrate (Thermo Scientific), and signal intensities were quantified with a luminescent image analyzer (LAS-3000, Fuji Film, Tokyo, Japan).
(§5) METHOD EXAMPLE. Temporal profile of p-eIF2α and NFATcl. […] Note that the normalized level of “1” in FIG. 6C was defined as the level for the cells that were not treated with RANKL without administration of guanabenz.

p-p38 MAPK = assay: Western immunoblotting, p-p38 MAPK in RAW264.7 cells; settings: 20 μM salubrinal
Protocol: as §4, §5

p-eIF2α = assay: Western immunoblotting, p-eIF2α in MC3T3 E1-14 cells
Protocol: as §4
METHOD EXAMPLE. ATF4-mediated elevation of osteocalcin mRNA in MC3T3 E1-14 cells. Salubrinal is an inhibitor of de-phosphorylation of eIF2α. […]

[2] = 20 μM salubrinal, day 2 after RANKL
[3] = 20 μM guanabenz, 2 days after RANKL

Row | Structure (SMILES) | number of TRAP-positive cells (RAW264.7 cells; 0.5 μM to 20 μM salubrinal, with RANKL) | growth area covered by multi-nucleated cells (RAW264.7 cells) | reduction of NFATc1 mRNA level (NFATc1; [2]) [%] | NFATc1 mRNA level (NFATc1; 0.1-1 μM salubrinal, with RANKL, except on day 4) | reduction of TRAP mRNA level [1, 2] [%] | TRAP mRNA level ([1]; 0.1-1 μM salubrinal, with RANKL, day 2 and day 4) | expression of TRAP [1] | phosphorylation level of ERK (p-ERK) | phosphorylation level of p38 MAPK (p-p38 MAPK) | phosphorylation of eIF2α (p-eIF2α; 5 μM salubrinal) | number of TRAP-positive multi-nucleated cells (RAW264.7 cells; 1 μM) | number of TRAP-positive multi-nucleated cells (RAW264.7 cells; 5 μM) | number of TRAP-positive multi-nucleated cells (RAW264.7 cells; 10 μM) | number of TRAP-positive multi-nucleated cells (RAW264.7 cells; 20 μM) | osteoclastogenesis of RAW264.7 cells (RAW264.7 cells; guanabenz dose response, with RANKL) | NFATc1 mRNA level (NFATc1; [3]) | TRAP mRNA level [1, 3] | TRAP mRNA level ([1]; 5 and 10 μM guanabenz, 2 days after RANKL) | p-eIF2α (p-eIF2α; guanabenz)
1 | O=C(/C=C/c1ccccc1)NC(NC(=S)Nc1cccc2cccnc12)C(Cl)(Cl)Cl (stereo not drawn) [salubrinal] | reduced the number of TRAP-positive cells in a dose dependent manner | significantly reduced | 46 | did not contribute to significant reduction | 35 | did not contribute to significant reduction | did not significantly alter | did not significantly alter; also recorded: no detectable changes | did not significantly alter; also recorded: no detectable changes | elevated phosphorylation of eIF2α |  |  |  |  |  |  |  |  | 
2 | N=C(N)N/N=C/c1c(Cl)cccc1Cl [guanabenz] |  | significantly reduced |  |  |  |  | did not significantly alter |  |  |  | 364±38 | 288±51 | 189±25 | 73±16 | attenuated osteoclastogenesis of RAW264.7 cells in a dose dependent manner | reduced | reduced | effective in reducing | increase in p-eIF2α and ATF4
